Test system: NLRP3 inflammasome
Experiment: NLRP3 inflammasome activation: ASC-SPECK formation in gramicidin-stimulated THP-1 cells
Assay type: cell-based
Conditions: PMA-treated human monocytic THP-1 cells, compound 1 h before 12.5 μg/ml gramicidin, 3-hour treatment
How it was run: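 Undifferentiated human THP-1 cells primed overnight with 10 ng/ml PMA, then given compounds 1 h before 12.5 μg/ml gramicidin for 3 h at 37° C in RPMI with 0.01% BSA. Fixed cells immunostained for ASC with DRAQ5 nuclear counterstain; DRAQ5-positive cells with ASC specks counted by high-content imaging; EC50 from curve fitting.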

[1] = Homo sapiens, THP-1, inhibition of ASC SPECK formation
[2] = inhibition of ASC SPECK formation

Structure (SMILES)	EC50 [1]	EC50 [2]
COc1ccc(CN2CC(n3nc4nc(-c5c(C)cc(C(F)(F)F)cc5O)cnc4c3C)CCC2=O)cc1 (racemic) [Example 107, (R and S)-5-(6-(2-hydroxy-6-methyl-4-(trifluoromethyl)phenyl)-3-methyl-2H-pyrazolo[3,4-b]pyrazin-2-yl)-1-(4-methoxybenzyl)piperidin-2-one]	279 nM	
Cc1cc(C(F)(F)F)cc(O)c1-c1cnc2cn([C@@H]3C[C@H]3C)nc2n1 [Example 50, 3-methyl-2-[2-[(1R,2R)-2-methylcyclopropyl]pyrazolo[3,4-b]pyrazin-6-yl]-5-(trifluoromethyl)phenol]	103 nM	
Cc1cc(C(F)(F)F)cc(O)c1-c1cnc2cn([C@@H]3CC[C@H](C#N)C3)nc2n1 (racemic) [Example 20, (1S,3R and 1R,3S)-3-(6-(2-hydroxy-6-methyl-4-(trifluoromethyl)phenyl)-2H-pyrazolo[3,4-b]pyrazin-2-yl)cyclopentane-1-carbonitrile]	186 nM	
Cc1cc(C(F)(F)F)cc(O)c1-c1cnc2cn([C@H]3CCO[C@H](C)C3)nc2n1 (single isomer, unassigned) [Example 90, 3-methyl-2-(2-((2S,4R or 2R,4S)-2-methyltetrahydro-2H-pyran-4-yl)-2H-pyrazolo[3,4-b]pyrazin-6-yl)-5-(trifluoromethyl)phenol]		101 nM
Cc1cc(C(F)(F)F)cc(O)c1-c1cnc2cn([C@@H]3C[C@@H]4C[C@H]3CO4)nc2n1 (single isomer, unassigned) [Example 3, 2-(2-((1S,4R,5R or 1R,4S,5S)-2-oxabicyclo[2.2.1]heptan-5-yl)-2H-pyrazolo[3,4-b]pyrazin-6-yl)-3-methyl-5-(trifluoromethyl)phenol]		35 nM
Cc1cc(Cl)cc(O)c1-c1cnc2cn([C@H]3C[C@H](F)C3)nc2n1 [Example 55, 5-chloro-2-(2-((1R,3R)-3-fluorocyclobutyl)-2H-pyrazolo[3,4-b]pyrazin-6-yl)-3-methylphenol]	27 nM	
Cc1cc(C(F)(F)F)cc(O)c1-c1cnc2cn(CC3CC(=O)N(C4CC4)C3)nc2n1 (single isomer, unassigned) [Example 63, (S or R)-1-cyclopropyl-4-((6-(2-hydroxy-6-methyl-4-(trifluoromethyl)phenyl)-2H-pyrazolo[3,4-b]pyrazin-2-yl)methyl)pyrrolidin-2-one]		12 nM
CCN1CC(Cn2cc3ncc(-c4c(C)cc(C(F)(F)F)cc4O)nc3n2)CC1=O (single isomer, unassigned) [Example 66, (R or S)-1-ethyl-4-((6-(2-hydroxy-6-methyl-4-(trifluoromethyl)phenyl)-2H-pyrazolo[3,4-b]pyrazin-2-yl)methyl)pyrrolidin-2-one]		359 nM
Cc1cc(Cl)cc(O)c1-c1cnc2cn([C@H]3[C@@H]4COC[C@@H]43)nc2n1 [Example 57, 2-(2-((1R,5S,6R)-3-oxabicyclo[3.1.0]hexan-6-yl)-2H-pyrazolo[3,4-b]pyrazin-6-yl)-5-chloro-3-methylphenol]	60 nM	
Cc1cc(C(F)(F)F)cc(O)c1-c1cnc2cn(C3CC34CCOCC4)nc2n1 (racemic) [Example 23, (S and R)-2-(2-(6-oxaspiro[2.5]octan-1-yl)-2H-pyrazolo[3,4-b]pyrazin-6-yl)-3-methyl-5-(trifluoromethyl)phenol]	461 nM	
Cc1cc(C(F)(F)F)cc(O)c1-c1cnc2cn([C@H]3C[C@H](Cl)C3)nc2n1 [Example 49, 2-(2-((1R,3R)-3-chlorocyclobutyl)-2H-pyrazolo[3,4-b]pyrazin-6-yl)-3-methyl-5-(trifluoromethyl)phenol]	31 nM	
Cc1cc(C(F)(F)F)cc(O)c1-c1cnc2cn(C34CCC(O)(C3)C4)nc2n1 [Example 26, 4-[6-[2-hydroxy-6-methyl-4-(trifluoromethyl)phenyl]pyrazolo[3,4-b]pyrazin-2-yl]bicyclo[2.1.1]hexan-1-ol]	51 nM	
Cc1cc(C(F)(F)F)cc(O)c1-c1cnc2cn([C@H]3CCOC[C@@H]3F)nc2n1 (single isomer, unassigned) [Example 103, 2-(2-((3R,4S or 3S,4R)-3-fluorotetrahydro-2H-pyran-4-yl)-2H-pyrazolo[3,4-b]pyrazin-6-yl)-3-methyl-5-(trifluoromethyl)phenol]	321 nM	
Cc1cc(C(F)(F)F)cc(O)c1-c1cnc2cn(CC3CC(=O)N(C)C3)nc2n1 (single isomer, unassigned) [Example 58, (R or S)-4-((6-(2-hydroxy-6-methyl-4-(trifluoromethyl)phenyl)-2H-pyrazolo[3,4-b]pyrazin-2-yl)methyl)-1-methylpyrrolidin-2-one]		298 nM
Cc1cc(C(F)(F)F)cc(O)c1-c1cnc2cn([C@H]3C[C@@H]3C)nc2n1 [Example 52, 3-methyl-2-[2-[(1S,2S)-2-methylcyclopropyl]pyrazolo[3,4-b]pyrazin-6-yl]-5-(trifluoromethyl)phenol]	40 nM	
Cc1cc(C(F)(F)F)cc(O)c1-c1cnc2cn([C@H]3CCOC[C@H]3F)nc2n1 (single isomer, unassigned) [Example 102, 2-(2-((3R,4R or 3S,4S)-3-fluorotetrahydro-2H-pyran-4-yl)-2H-pyrazolo[3,4-b]pyrazin-6-yl)-3-methyl-5-(trifluoromethyl)phenol]		314 nM
Cc1cc(C(F)(F)F)cc(O)c1-c1cnc2cn(CC3(C#N)CCC3)nc2n1 [Example 13, 1-((6-(2-hydroxy-6-methyl-4-(trifluoromethyl)phenyl)-2H-pyrazolo[3,4-b]pyrazin-2-yl)methyl)cyclobutane-1-carbonitrile]	264 nM	
CCOCOc1cc(C(F)(F)F)cc(C)c1-c1cnc2c([C@H](C)O)n(C[C@@H]3CC(=O)N(C4CC4)C3)nc2n1 (single isomer, unassigned) [Example 116, (R or S)-1-cyclopropyl-4-((6-(2-(ethoxymethoxy)-6-methyl-4-(trifluoromethyl)phenyl)-3-((S or R)-1-hydroxyethyl)-2H-pyrazolo[3,4-b]pyrazin-2-yl)methyl)pyrrolidin-2-one]	28 nM	
Cc1cc(C(F)(F)F)cc(O)c1-c1cnc2c(C(C)O)n(C3CCC(=O)N(C(C)C)C3)nc2n1 (single isomer, unassigned) [Example 119, (R or S)-5-(6-(2-hydroxy-6-methyl-4-(trifluoromethyl)phenyl)-3-((R or S)-1-hydroxyethyl)-2H-pyrazolo[3,4-b]pyrazin-2-yl)-1-isopropylpiperidin-2-one]		291 nM
Cc1cc(C(F)(F)F)cc(O)c1-c1cnc2cn(C3CCOCC3(C)C)nc2n1 (single isomer, unassigned) [Example 97, (R or S)-2-(2-(3,3-dimethyltetrahydro-2H-pyran-4-yl)-2H-pyrazolo[3,4-b]pyrazin-6-yl)-3-methyl-5-(trifluoromethyl)phenol]		683 nM
Cc1cc(C(F)(F)F)cc(O)c1-c1cnc2cn([C@H]3CC[C@@H](C#N)CC3)nc2n1 [Example 11, (1S,4S)-4-(6-(2-hydroxy-6-methyl-4-(trifluoromethyl)phenyl)-2H-pyrazolo[3,4-b]pyrazin-2-yl)cyclohexane-1-carbonitrile]	1500 nM	
COC12CC(n3cc4ncc(-c5c(C)cc(C(F)(F)F)cc5O)nc4n3)(C1)C2 [Example 38, 2-[2-(3-methoxy-1-bicyclo[1.1.1]pentanyl)pyrazolo[3,4-b]pyrazin-6-yl]-3-methyl-5-(trifluoromethyl)phenol]	141 nM	
Cc1cc(C(F)(F)F)cc(O)c1-c1cnc2cn(C[C@@H]3CCN(C)C3)nc2n1 [Example 6, (R)-3-methyl-2-(2-((1-methylpyrrolidin-3-yl)methyl)-2H-pyrazolo[3,4-b]pyrazin-6-yl)-5-(trifluoromethyl)phenol]	35 nM	
Cc1cc(C(F)(F)F)cc(O)c1-c1cnc2cn([C@H]3C[C@H](C#N)C3)nc2n1 [Example 36, (1R,3R)-3-(6-(2-hydroxy-6-methyl-4-(trifluoromethyl)phenyl)-2H-pyrazolo[3,4-b]pyrazin-2-yl)cyclobutane-1-carbonitrile]	18 nM	
Cc1cc(C(F)(F)F)cc(O)c1-c1cnc2cn(C34CC3COC4(C)C)nc2n1 (single isomer, unassigned) [Example 77, 2-(2-((1S,5S or 1R,5R)-2,2-dimethyl-3-oxabicyclo[3.1.0]hexan-1-yl)-2H-pyrazolo[3,4-b]pyrazin-6-yl)-3-methyl-5-(trifluoromethyl)phenol]		445 nM
Cc1cc(C(F)(F)F)cc(O)c1-c1cnc2cn(C34CCOCC3C4)nc2n1 (single isomer, unassigned) [Example 91, 2-(2-((1R,6S or 1S,6R)-3-oxabicyclo[4.1.0]heptan-6-yl)-2H-pyrazolo[3,4-b]pyrazin-6-yl)-3-methyl-5-(trifluoromethyl)phenol]		60 nM
Cc1cc(C(F)(F)F)cc(O)c1-c1cnc2cn([C@H]3[C@@H]4COC[C@@H]43)nc2n1 [Example 10, 2-(2-((1R,5S,6R)-3-oxabicyclo[3.1.0]hexan-6-yl)-2H-pyrazolo[3,4-b]pyrazin-6-yl)-3-methyl-5-(trifluoromethyl)phenol]	34 nM	
Cc1cc(C(F)(F)F)cc(O)c1-c1cnc2nn([C@H]3C[C@H](F)C3)nc2n1 [Example 121, 2-(2-((1R,3R)-3-fluorocyclobutyl)-2H-[1,2,3]triazolo[4,5-b]pyrazin-5-yl)-3-methyl-5-(trifluoromethyl)phenol]	411 nM	
Cc1cc(C(F)(F)F)cc(O)c1-c1cnc2cn([C@@H]3COCC[C@H]3O)nc2n1 [Example 34, (3R,4R)-3-[6-[2-hydroxy-6-methyl-4-(trifluoromethyl)phenyl]pyrazolo[3,4-b]pyrazin-2-yl]tetrahydropyran-4-ol]	44 nM	
Cc1cc(C(F)(F)F)cc(O)c1-c1cnc2cn(C34CC(CO)(C3)C4)nc2n1 [Example 43, 2-[2-[3-(hydroxymethyl)-1-bicyclo[1.1.1]pentanyl]pyrazolo[3,4-b]pyrazin-6-yl]-3-methyl-5-(trifluoromethyl)phenol]	26 nM	

— patent US20250195511A1, “INDAZOLE DERIVATIVES USEFUL AS INHIBITORS OF NOD-LIKE RECEPTOR PROTEIN 3” (Merck Sharp & Dohme LLC, priority 2023, published 2025)
